Some test systems named below: A498; BT-549; CCRF-CEM; COLO 205; EKVX; HCT-116; HOP-62; K562; MDA-MB-435; MDA-N; NCI-H23; NCI-H460; OVCAR-8; SK-MEL-28; SK-MEL-2; SK-OV-3; SNB-19; SW-620; U-251; HL-60.
Common to all, as to assay: growth of human tumour cells (NCI), 48 h

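Dose response: 5 concentrations. Exposure: 48 h. Format: 96-well plates. Endpoint: linear interpolation; highest concentration if not reached. At the GI50, growth is halved.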 Active and inactive are the calls of the source. Cut-off read from the data, not from the text of the source: active = GI50 up to about 1.1 µM and inactive = higher.

For `CCOC(=O)c1c(N2CCOCC2)[nH]c(=O)c(C(c2cccs2)c2c(O)c(C(=O)OCC)c(N3CCOCC3)[nH]c2=O)c1O`, the GI50 in the assay on A498, with BT-549, in the assay on CCRF-CEM, in the assay on COLO 205, in the assay on EKVX and with HCT-116 was > 100 µM (inactive) throughout. Also, the GI50 with HOP-62, in the assay on K562, with MDA-MB-435, in the assay on MDA-N, with NCI-H23 and in the assay with NCI-H460 was > 100 µM (inactive) in each case. Besides, the GI50 in the assay on OVCAR-8, in the assay with SK-MEL-28, with SK-MEL-2, in the assay on SK-OV-3, with SNB-19 and in the assay with SW-620 was > 100 µM (inactive) throughout. In addition, the GI50 in the assay with U-251 is > 100 µM (inactive).

Consider `O=c1[nH]c2[nH]c(-c3ccc(Br)cc3)cc2c2ccccc12`, for which the GI50 was > 100 µM (inactive) with A498; 76.4 µM (inactive) in the assay with BT-549; 34.7 µM (inactive) with COLO 205; 5.58 µM (inactive) in the assay with EKVX; 43.2 µM (inactive) with HCT-116; 13.5 µM (inactive) with HL-60. Moreover, the GI50 in the assay on HOP-62 was 22.1 µM (inactive); with K562, 27.1 µM (inactive); with MDA-MB-435, > 100 µM (inactive); in the assay on MDA-N it was > 100 µM (inactive); in the assay on NCI-H23, > 100 µM (inactive); with NCI-H460, > 100 µM (inactive). In addition, the GI50 in the assay on OVCAR-8 was 23.3 µM (inactive); in the assay with SK-MEL-28, > 100 µM (inactive); in the assay on SK-MEL-2, > 100 µM (inactive); with SNB-19, 29.4 µM (inactive); with SW-620, > 100 µM (inactive); in the assay on U-251, 28.8 µM (inactive).

For the compound `Cn1cc2c(=O)n3ncn(-c4ccc(Br)cc4)c3nc2n1`, the GI50 in the assay on A498, in the assay on BT-549, in the assay with CCRF-CEM, in the assay with COLO 205, in the assay on EKVX and in the assay with HCT-116 was > 100 µM (inactive) each time. For the same compound, the GI50 with HL-60, in the assay with K562, in the assay with MDA-MB-435, in the assay with MDA-N, in the assay with NCI-H23 and in the assay with NCI-H460 was > 100 µM (inactive) in each case. Further, the GI50 with OVCAR-8, with SK-MEL-28, with SK-MEL-2, in the assay with SK-OV-3, in the assay on SNB-19 and with SW-620 was > 100 µM (inactive) in each case. In addition, the GI50 with U-251 is > 100 µM (inactive).

In the case of `C(=N\NC1=NCCN1)/c1ccc(-c2cn3cc(/C=N/NC4=NCCN4)ccc3n2)cc1`, the GI50 in the assay on A498 was 40.3 µM (inactive); with BT-549 it was 18.2 µM (inactive); with CCRF-CEM it was 2.74 µM (inactive); in the assay with COLO 205, > 100 µM (inactive); with EKVX, > 50.4 µM (inactive); in the assay with HCT-116 it was 10.4 µM (inactive). The GI50 was 4.48 µM (inactive) in the assay with HL-60; 14.6 µM (inactive) in the assay on K562; 24.5 µM (inactive) in the assay with MDA-MB-435; > 49 µM (inactive) in the assay with MDA-N; > 100 µM (inactive) in the assay on NCI-H23; 3.76 µM (inactive) in the assay on NCI-H460. The GI50 is 37.5 µM (inactive) with OVCAR-8; > 100 µM (inactive) in the assay with SK-MEL-2; > 100 µM (inactive) in the assay with SK-OV-3; > 43.1 µM (inactive) with SNB-19; > 28.2 µM (inactive) with SW-620; 15.5 µM (inactive) in the assay on U-251.

In the case of `Brc1cccc(C2ON=C(c3ccccc3)N2C23CC4CC(CC(C4)C2)C3)c1` (stereo unspecified), the GI50 with A498, with BT-549, in the assay on CCRF-CEM, with COLO 205, in the assay on EKVX and in the assay with HCT-116 was > 10 µM (inactive) throughout. Also, the GI50 in the assay on HOP-62, in the assay with K562, in the assay with MDA-MB-435, in the assay on MDA-N, in the assay on NCI-H23 and in the assay with NCI-H460 was > 10 µM (inactive) throughout. The GI50 in the assay with OVCAR-8, in the assay with SK-MEL-28, in the assay with SK-MEL-2, with SK-OV-3, in the assay on SNB-19 and in the assay on SW-620 was > 10 µM (inactive) each time. Further, the GI50 in the assay with U-251 is > 10 µM (inactive).

Turning to `O=C1/C(=C/c2ccc(Cl)cc2)CCC1CNc1ccc(Cl)cc1` (stereo unspecified), the GI50 was 14.9 µM (inactive) in the assay on A498; 24.3 µM (inactive) in the assay with BT-549; 0.828 µM (active) with CCRF-CEM; 2.46 µM (inactive) in the assay on COLO 205; 10.7 µM (inactive) with EKVX; 4.73 µM (inactive) in the assay with HCT-116. For the same compound, the GI50 with HL-60 is 0.703 µM (active); with HOP-62, 19.9 µM (inactive); in the assay on K562, 0.249 µM (active); in the assay with MDA-MB-435, 15.1 µM (inactive); with MDA-N, 11.8 µM (inactive); in the assay on NCI-H23, 10.3 µM (inactive). The GI50 in the assay on NCI-H460 was 7.96 µM (inactive); in the assay with OVCAR-8, 2.42 µM (inactive); in the assay with SK-MEL-28, 15.6 µM (inactive); in the assay on SK-MEL-2, 29.2 µM (inactive); in the assay on SNB-19 it was 14.7 µM (inactive); with SW-620 it was 2.03 µM (inactive). Besides, the GI50 in the assay on U-251 is 9.71 µM (inactive).

As to `COc1c(-c2ccccc2)oc2c(CP(=O)(OC)OC)cccc2c1=O`, the GI50 in the assay with A498 is > 100 µM (inactive); with BT-549, 41.1 µM (inactive); in the assay with CCRF-CEM, 94.4 µM (inactive); with COLO 205, > 100 µM (inactive); with EKVX, > 100 µM (inactive); in the assay with HCT-116 it was > 100 µM (inactive). Besides, the GI50 is > 100 µM (inactive) in the assay with HOP-62; > 100 µM (inactive) in the assay on K562; > 100 µM (inactive) with MDA-MB-435; > 100 µM (inactive) in the assay with MDA-N; 68.2 µM (inactive) in the assay with NCI-H23; > 100 µM (inactive) in the assay on SK-MEL-2. Further, the GI50 in the assay with SK-OV-3 and with U-251 was > 100 µM (inactive) each time.

Regarding `N#CC(C/C=C/c1ccccc1)NNC(=O)c1c(Cl)c(Cl)c(Cl)c(Cl)c1-c1nc2cc(C(=O)c3ccccc3)ccc2[nH]1` (stereo unspecified), the GI50 in the assay with A498 is 9.23 µM (inactive); with BT-549, 20.7 µM (inactive); in the assay with CCRF-CEM, 5.79 µM (inactive); in the assay on COLO 205 it was 15 µM (inactive); in the assay on EKVX it was 15.1 µM (inactive); with HCT-116, 20 µM (inactive). Further, the GI50 was 7.57 µM (inactive) with HL-60; 6.14 µM (inactive) with HOP-62; 6.34 µM (inactive) with K562; 4.11 µM (inactive) in the assay on MDA-MB-435; 3.24 µM (inactive) in the assay on MDA-N; 17.9 µM (inactive) in the assay on NCI-H23. The GI50 in the assay with OVCAR-8 was 16.7 µM (inactive); with SK-MEL-28 it was 16.3 µM (inactive); in the assay with SK-MEL-2, 17.5 µM (inactive); with SK-OV-3 it was 16.9 µM (inactive); in the assay with SNB-19, 14.8 µM (inactive); in the assay with SW-620, 22.8 µM (inactive). Besides, in the assay on U-251, the GI50 was 12.5 µM (inactive).

Turning to `CC(=O)Oc1ccc(/C=C/C(=O)O[C@H]2CCCC[C@@H]2OC(=O)/C=C/c2ccc(OC(C)=O)c(OC(C)=O)c2)cc1OC(C)=O`, the GI50 with A498 was 18.5 µM (inactive); in the assay on BT-549 it was 13.2 µM (inactive); with CCRF-CEM it was 2.75 µM (inactive); with COLO 205 it was 16.7 µM (inactive); with EKVX, 17.1 µM (inactive); in the assay on HCT-116, 4.58 µM (inactive). Moreover, the GI50 in the assay on HOP-62 was 7.38 µM (inactive); with K562, 5.75 µM (inactive); in the assay with MDA-MB-435, 10.4 µM (inactive); with MDA-N it was 8.97 µM (inactive); in the assay on NCI-H23, 8.75 µM (inactive); with NCI-H460, 3.85 µM (inactive). Further, the GI50 in the assay with OVCAR-8 is 8.61 µM (inactive); in the assay with SK-MEL-28 it was 12.8 µM (inactive); with SK-MEL-2, 15.3 µM (inactive); in the assay with SK-OV-3, 11.8 µM (inactive); in the assay on SNB-19, 4.71 µM (inactive); in the assay on SW-620, 2.24 µM (inactive). For the same compound, in the assay on U-251, the GI50 was 9.25 µM (inactive).

Consider `Cc1cc(N(C)C)c2ccccc2[n+]1CCCCCCCCCC[n+]1c(C)cc(N(C)C)c2ccccc21.[O-][Cl+3]([O-])([O-])[O-].[O-][Cl+3]([O-])([O-])[O-]`, for which the GI50 is 2.07 µM (inactive) with A498; 0.676 µM (active) in the assay on BT-549; 0.577 µM (active) in the assay on CCRF-CEM; 0.265 µM (active) in the assay on COLO 205; 1.32 µM (inactive) with EKVX; 0.743 µM (active) with HCT-116. Further, the GI50 with HL-60 is 0.275 µM (active); in the assay on K562 it was 0.128 µM (active); in the assay on MDA-MB-435 it was 0.516 µM (active); in the assay with MDA-N, 0.485 µM (active); with NCI-H23, 0.202 µM (active); in the assay with NCI-H460, 0.348 µM (active). Also, the GI50 with OVCAR-8 is 1.07 µM (active); in the assay on SK-MEL-28 it was 0.986 µM (active); in the assay on SK-MEL-2, 0.962 µM (active); with SK-OV-3, 0.735 µM (active); with SNB-19 it was 0.512 µM (active); in the assay on SW-620 it was 1.92 µM (inactive). Besides, the GI50 with U-251 was 0.124 µM (active).

For the compound `O=C(O)c1c(Br)c(Br)c(Br)c(Br)c1C1c2ccc(O)cc2Oc2cc(O)ccc21`, the GI50 in the assay on A498 was > 100 µM (inactive); in the assay with BT-549, > 100 µM (inactive); in the assay with COLO 205 it was > 100 µM (inactive); in the assay on EKVX, > 100 µM (inactive); with HCT-116, > 100 µM (inactive); with HL-60 it was 0.232 µM (active). For the same compound, the GI50 with HOP-62, in the assay on K562, in the assay with MDA-MB-435, with MDA-N, in the assay on NCI-H460 and in the assay on OVCAR-8 was > 100 µM (inactive) each time. Besides, the GI50 in the assay with SK-MEL-28, in the assay on SK-MEL-2, in the assay on SK-OV-3, with SNB-19, in the assay on SW-620 and in the assay with U-251 was > 100 µM (inactive) each time.

The values are drawn from ChEMBL document CHEMBL1201862, “PubChem BioAssay data set” (2004).
